Publication PMC12655637, “Design, Synthesis, and Mechanistic Study of Novel Ciprofloxacin/Thiazole Chalcone Hybrids as Potential Anticancer Agents” (Pharmaceuticals, 2025)

How the values were obtained:
Assay in all cases: NCI-60 screening, one-dose (10 µM) and five-dose, SRB
CCRF-CEM = type: cell-based, human
MOLT-4 = type: cell-based, human
SR = type: cell-based, human; details: five-dose
A549/ATCC = type: cell-based, human
EKVX = type: cell-based, human
HOP-92 = type: cell-based, human
NCI-H226 = type: cell-based, human
NCI-H23 = type: cell-based, human
NCI-H460 = type: cell-based, human; details: five-dose, NCI-H460
NCI-H522 = type: cell-based, human
COLO 205 = type: cell-based, human
SF-268 = type: cell-based, human
SF-539 = type: cell-based, human; details: five-dose, SF-539
U251 = type: cell-based, human
MDA-MB-435 = type: cell-based; details: Homo sapiens, MDA-MB-435
[1] = Homo sapiens, five-dose, read-out: LC50 (the source's name)
[2] = Homo sapiens, five-dose, MOLT-4
[3] = Homo sapiens, read-out: LC50 (the source's name)
[4] = Homo sapiens, 10 μM, Non-Small-Cell Lung Cancer, read-out: Growth percentage
[5] = Homo sapiens, five-dose, HOP-92
[6] = Homo sapiens, five-dose, NCI-H226
[7] = Homo sapiens, five-dose, NCI-H23
[8] = Homo sapiens, five-dose, NCI-H522
[9] = Homo sapiens, five-dose, COLO 205
[10] = Homo sapiens, five-dose, SF-268
[11] = Homo sapiens, U-251, five-dose, U251

Work on `Cc1nc(SCC(=O)N2CCN(c3cc4c(cc3F)c(=O)c(C(=O)O)cn4C3CC3)CC2)sc1C(=O)/C=C/c1cccc(F)c1` [Compound 4d, (E)-1-Cyclopropyl-6-fluoro-7-(4-(2-((5-(3-(3-fluorophenyl)acryloyl)-4-methylthiazol-2-yl)thio)acetyl)piperazin-1-yl)-4-oxo-1,4-dihydroquinoline-3-carboxylic Acid] yielded an activity at 10 µM (CCRF-CEM; Homo sapiens, 10 μM, Leukemia, read-out: Growth percentage) of 17.1%, a GI50 (CCRF-CEM; Homo sapiens, five-dose) of 2.88 µM and an IC50 (CCRF-CEM; Homo sapiens, five-dose) of 4.37 µM. The CC50 (CCRF-CEM; [1]) was over 100 µM, the TGI (CCRF-CEM; five-dose) was 4.3 µM and the activity at 10 µM (MOLT-4; Homo sapiens, 10 μM, MOLT-4, Leukemia, read-out: Growth percentage) was 0.79%. It also gave a GI50 (MOLT-4; [2]) of 3.4 µM, an IC50 (MOLT-4; [2]) of 4.8 µM and an LC50 (concentration killing 50% of cells) (MOLT-4; [2]) of 53.7 µM. For the same compound, the TGI (MOLT-4; five-dose, MOLT-4) was 0.34 µM, the GI50 (SR; Homo sapiens) was 1.4 µM and the IC50 (SR; Homo sapiens) was 2.3 µM. The CC50 (SR; [3]) was 5.3 µM, the TGI (SR) was 100.0 µM and the activity at 10 µM (A549/ATCC; [4]) was 65.8%. The GI50 (A549/ATCC; Homo sapiens, five-dose) was over 100 µM, the IC50 (A549/ATCC; Homo sapiens, five-dose) was over 100 µM and the CC50 (A549/ATCC; [1]) was over 100 µM. It also gave a TGI (A549/ATCC; five-dose) of 7.94 µM, an activity at 10 µM (EKVX; [4]) of 70.2% and a GI50 (EKVX; Homo sapiens, five-dose) of 1.7 µM. For the same compound, the IC50 (EKVX; Homo sapiens, five-dose) was 5.9 µM, the CC50 (EKVX; [1]) was over 100 µM and the TGI (EKVX; five-dose) was 100.0 µM. For the same compound, the activity at 10 µM (HOP-92; Homo sapiens, 10 μM, HOP-92, Non-Small-Cell Lung Cancer, read-out: Growth percentage) was 91.9%, the GI50 (HOP-92; [5]) was over 100 µM and the IC50 (HOP-92; [5]) was over 100 µM. For the same compound, the LC50 (concentration killing 50% of cells) (HOP-92; [5]) was over 100 µM, the TGI (HOP-92; five-dose, HOP-92) was 100.0 µM and the activity at 10 µM (NCI-H226; Homo sapiens, 10 μM, NCI-H226, Non-Small-Cell Lung Cancer, read-out: Growth percentage) was 70.9%. For the same compound, the GI50 (NCI-H226; [6]) was over 100 µM, the IC50 (NCI-H226; [6]) was over 100 µM and the LC50 (concentration killing 50% of cells) (NCI-H226; [6]) was over 100 µM. The TGI (NCI-H226; five-dose, NCI-H226) was 100.0 µM, the activity at 10 µM (NCI-H23; Homo sapiens, 10 μM, NCI-H23, Non-Small-Cell Lung Cancer, read-out: Growth percentage) was 45.6% and the GI50 (NCI-H23; [7]) was over 100 µM. It also gave an IC50 (NCI-H23; [7]) of over 100 µM, an LC50 (50% lethal concentration) (NCI-H23; [7]) of over 100 µM and a TGI (NCI-H23; five-dose, NCI-H23) of 100.0 µM. The GI50 (NCI-H460; Homo sapiens) was over 100 µM, the IC50 (NCI-H460; Homo sapiens) was over 100 µM and the CC50 (NCI-H460; [3]) was over 100 µM. For the same compound, the TGI (NCI-H460) was 100.0 µM, the activity at 10 µM (NCI-H522; Homo sapiens, 10 μM, NCI-H522, Non-Small-Cell Lung Cancer, read-out: Growth percentage) was 88.2% and the GI50 (NCI-H522; [8]) was over 100 µM. For the same compound, the IC50 (NCI-H522; [8]) was over 100 µM, the LC50 (concentration killing 50% of cells) (NCI-H522; [8]) was over 100 µM and the TGI (NCI-H522; five-dose, NCI-H522) was 100.0 µM. It also gave an activity at 10 µM (COLO 205; Homo sapiens, 10 μM, COLO 205, Colon Cancer, read-out: Growth percentage) of 102%, a GI50 (COLO 205; [9]) of 4.9 µM and an IC50 (COLO 205; [9]) of 9.3 µM. It also gave a CC50 (COLO 205; Homo sapiens, five-dose, COLO 205, read-out: LC50 (the source's name)) of over 100 µM, a TGI (COLO 205; five-dose, COLO 205) of 19.95 µM and an activity at 10 µM (SF-268; Homo sapiens, 10 μM, SF-268, CNS Cancer, read-out: Growth percentage) of 25.7%. For the same compound, the GI50 (SF-268; [10]) was 27.5 µM, the IC50 (SF-268; [10]) was over 100 µM and the CC50 (SF-268; Homo sapiens, five-dose, SF-268, read-out: LC50 (the source's name)) was over 100 µM. The TGI (SF-268; five-dose, SF-268) was 100.0 µM, the GI50 (SF-539; Homo sapiens) was 2 µM and the IC50 (SF-539; Homo sapiens) was 4.1 µM. The CC50 (SF-539; [3]) was over 100 µM, the TGI (SF-539) was 100.0 µM and the activity at 10 µM (U251; Homo sapiens, U-251, 10 μM, U251, CNS Cancer, read-out: Growth percentage) was -7.6%. It also gave a GI50 (U251; [11]) of over 100 µM, an IC50 (U251; [11]) of over 100 µM and a CC50 (U251; Homo sapiens, U-251, five-dose, U251, read-out: LC50 (the source's name)) of over 100 µM. It also gave a TGI (U251; five-dose, U251) of 100.0 µM, a GI50 (MDA-MB-435) of 3.7 µM and an IC50 (MDA-MB-435) of 6.9 µM.
